Data on five compounds can be found in ChEMBL document CHEMBL5370646, “Synthesis and Conformational Analysis of FR901464-Based RNA Splicing Modulators and Their Synergism in Drug-Resistant Cancers” (J Med Chem, 2023).

One data set has as its system SW48. As to the kind of experiment: Growth inhibition of human SW48 cells assessed as reduction in cell viability incubated for 72 hrs. The format is functional.
The next data set concerns DMS-114. As to the kind of experiment: Growth inhibition of human DMS-114 cells assessed as reduction in cell viability incubated for 72 hrs. It counts as functional.
The subject of a further data set is A549. In words: Growth inhibition of human A549 cells assessed as reduction in cell viability incubated for 72 hrs. It counts as functional.
The subject of another data set is DMS-53. As to the kind of experiment: Growth inhibition of human DMS-53 cells assessed as reduction in cell viability incubated for 72 hrs. The format is functional.
Data set [1] has as its system HCT-116. As to the kind of experiment: Growth inhibition of human HCT-116 cells assessed as reduction in cell viability incubated for 72 hrs. The format is functional.
Data set [2] is described as follows: Growth inhibition of mouse FL83B cells assessed as reduction in cell viability incubated for 72 hrs. The format is toxicity, cell-based.
Data set [3] can be described thus: Growth inhibition of human CCD-841CoN cells assessed as reduction in cell viability incubated for 72 hrs. The format is toxicity, cell-based.
Data set [4] relates to HCT-116. In words: Modulation of RNA splicing in human HCT-116 cells assessed as decrease in MCL-1L expression by Western blot analysis. It counts as functional, cell-based. The note with it: dose 3-100 nM.
The nature of data set [5]: Metabolic stability in CD1 mouse plasma measured after 48 hrs by LC-MS analysis. The format is ADME, cell-free.
Data set [6] concerns HCT-116. In words: Modulation of RNA splicing in human HCT-116 cells assessed as decrease in SF3B1 phosphorylation at thr313 residue by Western blot analysis. The format is functional, cell-based. The note with it: dose 3-100 nM.
Data set [7] deals with HCT-116. In words: Modulation of RNA splicing in human HCT-116 cells assessed as decrease in MCL-1S expression by Western blot analysis. It counts as functional, cell-based. The note with it: dose 3-100 nM.
Data set [8] can be described thus: Metabolic stability in CD1 mouse plasma assessed as half life measured after 48 hrs by LC-MS analysis. It counts as ADME, cell-free.
The nature of data set [9]: Metabolic stability in CD1 mouse plasma assessed as half life measured after 10 mins by LC-MS analysis. The format is ADME, cell-free.
Data set [10] in a line: Synergistic antiproliferative activity against human Osimertinib-resistant HCC827AR cell assessed as combination index at 2.5 nM incubated for 72 hrs in presence of 4 uM osimertinib by WST-1 assay. The format is functional.
Data set [11] can be described thus: Synergistic antiproliferative activity against human Osimertinib-resistant HCC827AR cell assessed as combination index at 2.5 nM incubated for 72 hrs in presence of 1 uM osimertinib by WST-1 assay. The format is functional.
Data set [12] can be described thus: Synergistic antiproliferative activity against human Osimertinib-resistant HCC827AR cell assessed as combination index at 2.5 nM incubated for 72 hrs in presence of 2 uM osimertinib by WST-1 assay. It counts as functional.
The nature of data set [13]: Synergistic antiproliferative activity against human Osimertinib-resistant HCC827AR cell assessed as combination index at 2.5 nM incubated for 72 hrs in presence of 0.50 uM osimertinib by WST-1 assay. The format is functional.
Data set [14] is described as follows: Synergistic antiproliferative activity against human Osimertinib-resistant HCC827AR cell assessed as combination index at 2.5 nM incubated for 72 hrs in presence of 0.25 uM osimertinib by WST-1 assay. The format is functional.

`COCO[C@@H](C)/C=C\C(=O)N(C)[C@@H]1C[C@H](C)[C@H](C/C=C(C)/C=C/[C@H]2OC(C)(C)C[C@@]3(CO3)[C@@H]2O)O[C@@H]1C`: the GI50 was 4600 nM with SW48; 4900 nM in the data set with DMS-114; 7500 nM in the data set on A549; 6000 nM in the data set on DMS-53; 4100 nM in the data set with HCT-116 [1].
As to `COCO[C@@H](C)/C=C\C(=O)N[C@@H]1CC[C@H](C/C=C(C)/C=C/[C@H]2OC(C)(C)C[C@@]3(CO3)[C@@H]2O)O[C@@H]1C`, the concentration for 50% growth inhibition (GI50) at 72 h in data set [2] stood at 35.7 nM; in data set [3], 63.2 nM. Further, the GI50 was 10.7 nM with SW48; 10.2 nM in the data set on DMS-114; 8.6 nM with A549; 14.9 nM in the data set on DMS-53; 10.5 nM with HCT-116 [1]. Further, the Activity result in the data set with HCT-116 [4], in the data set on HCT-116 [6] and in the data set on HCT-116 [7] was “Dose-Dependent Effect” in each case. For the same compound, the Stability result in [5] is “Stable”. The half-life in [8] was 8 h.
In the case of `CC(=O)O[C@@H](C)/C=C\C(=O)N[C@@H]1C[C@H](C)[C@H](C/C=C(C)/C=C/[C@H]2OC(C)(C)C[C@@]3(CO3)[C@@H]2O)O[C@@H]1C`, the GI50 at 72 h in data set [2] was 0.9 nM; in data set [3] it was 2 nM. Moreover, the concentration for 50% growth inhibition (GI50) with SW48 was 0.9 nM; in the data set on DMS-114, 0.4 nM; in the data set with A549 it was 2.7 nM; with DMS-53, 0.5 nM; in the data set on HCT-116 [1], 0.7 nM. Further, the half-life in data set [9] was found to be 1 min.
As for `COCO[C@@H](C)/C=C\C(=O)N(C)[C@@H]1CC[C@H](C/C=C(C)/C=C/[C@H]2OC(C)(C)C[C@@]3(CO3)[C@@H]2O)O[C@@H]1C`, the GI50 with SW48 came to 16000 nM; in the data set on DMS-114, 8700 nM; in the data set on A549, 34000 nM; in the data set on DMS-53, 23000 nM; with HCT-116 [1], 16000 nM.
On to `Cc1c(-c2c(-c3ccc(F)o3)sc3ncnc(O[C@H](Cc4ccccc4OCc4ccnn4CC(F)(F)F)C(=O)O)c23)ccc(OCCN2CCN(C)CC2)c1Cl`, for which the CI in [10] is 0.42; in [11], 0.55; in data set [12] it was 0.47; in data set [13], 0.46; in data set [14], 0.38.
